# Data published in patent US20220090209A1, “RETROTRANSPOSON BIOMARKERS” (VIB VZW, priority 2019, published 2022).
# Assays:
# MCF7 cells [1] = assay: Retrotransposon expression by mRNA-seq and RepEnrich in MCF7 cells; format: cell-based, human
# Procedure: (§1) Where indicated, cells were pre-treated with 5-aza-2′-deoxycytidine (aza, 1 μM) for 3 days by adding the correct volume to fresh culture medium while using an equal volume of the carrier (DMSO) as control. This was followed by another day of exposure to aza in hypoxia or normoxia, bringing the total aza exposure time for experiments to 4 days. 2 mM of DMOG (dimethyloxalylglycine, Sigma) was added to culture medium for 24 hours where indicated.
# (§2) mRNA capture and stranded library preparation of RNA from MCF7 cells, mouse cell lines and tumours for the purpose of retrotransposon expression analysis was performed using the KAPA Stranded mRNA-Seq Kit (Illumina) according to the provided protocol.
# (§3) RNA-seq data were expressed in transcript per million (TPM), 0.01 offset. Expression read counts of retrotransposons are calculated using the RepEnrich tool (https://github.com/nerettilab/RepEnrich), and normalized to the total mappable read depth. The repeat genome of the human reference genome hg19 was download from the RepEnrich website. Human retrotransposon classes (LINE, SINE, LTR) contain 16 families and 779 subfamilies. The repeat genome of the mouse genome mm10 was built using the repeat masker track from the UCSC genome browser. Mouse retrotransposon classes (LINE, SINE, LTR) contain 24 families and 906 subfamilies.
# [2] = tested on: HIF1B-knockout MCF7 cells; assay: Retrotransposon expression by mRNA-seq and RepEnrich in HIF1B-knockout MCF7 cells; format: cell-based, human
# Procedure: MCF7, RCC4, SK-MEL-28, A549, 4T1, MC38 and CT26 cell lines were obtained from the American Type Culture Collection and their identity was not further authenticated. These are not listed in the database of commonly misidentified cell lines maintained by ICLAC. MCF7 HIF1B-knockout cells were previously described (Ahmed et al. 2013, Toxicol Sci 138:89-103). MCF7, RCC4, A549, MC38 and 4T1 cells were cultured at 37° C. in Dulbecco's modified Eagle medium (DMEM) with 10% fetal bovine serum (FBS), 5 mL of 100 U/mL Penicillin-Streptomycin (Pen Strep, Life Technologies) and 5 mL of L-Glutamine 200 mM. SK-MEL-28 and CT26 cell lines were cultured at 37° C. in Roswell Park Memorial Institute 1640 Medium (RPMI) with 10% FBS 1% Penicillin-Streptomycin and 1% L-Glutamine.
# as §1, with “2 mM of DMOG (dimethyloxalylglycine, Sigma) was added to culture medium for 24 hours where indicated.” left out
# RNA-seq data were expressed in transcript per million (TPM), 0.01 offset. Expression read counts of retrotransposons are calculated using the RepEnrich tool (https://github.com/nerettilab/RepEnrich), and normalized to the total mappable read depth. […]
# 4T1 cells = assay: Retrotransposon expression in 4T1 cells in vitro; format: cell-based, mouse
# Procedure: as §1, §2, §3
# 4T1 tumours [3] = assay: RNA-seq of 4T1 tumours from treated mice (retrotransposon expression, immune signatures); format: in vivo, mouse
# Procedure: as §2, §3
# (§4) All the experimental procedures were approved by the Institutional Animal Care and Research Advisory Committee of the KU Leuven. 1×10^6 4T1 cells, Hif1b-knockout or wild-type (scramble), were injected orthotopically in the mammary gland of 10 weeks old Balb/c mice, and 1×10^6 CT26 or MC38 cells were injected subcutaneously in 10 weeks old Balb/c or C57BL/6J mice, respectively. When the tumour was palpable (starting volume 100 mm^3), the mice were injected intraperitoneally with 0.8 mg/kg of 5-aza-2′-deoxycytidine (aza) or PBS, 40 mg/kg DC101 antibody (BE0089, InVivoMab) or IgG (BE0060, InVivoMab) or 10 mg/kg anti-PD1 antibody (6E0146, InVivoMab) or IgG antibody (BE0089, InVivoMab) according to the following schedules: DC101 three times per week; anti-PD1 every other day, starting when the tumour size was around 200 mm^3; aza was administered in 2 cycles with 2-days rest in between until the control tumours reached the endpoint. Tumour volumes were monitored every two to three days by a calliper, and mice were culled before tumour volumes exceeded 2,000 mm^3. When over 20% of mice were culled, the experiment was terminated (all arms). In vivo experiments in 4T1, CT26 and MC38 treated with aza or anti-PD1 antibody were performed three times, with at least 6 mice per treatment group in each experiment.
# MCF7 cells [4] = assay: DNA methylation in aza-treated MCF7 cells (LC-ESI-MS/MS of 5mC, BS-seq); format: cell-based, human
# 4T1 tumours [5] = assay: Immunofluorescence of 4T1 tumours (CD31, pimonidazole, CD8, granzyme B); format: in vivo, mouse; conditions: aza versus vehicle
# Procedure: as §4, with “experiment. […]” for “experiment.”
# 4T1 tumours [6] = assay: Growth of orthotopic 4T1 tumours in mice; format: in vivo, mouse; conditions: aza versus vehicle, P=3.0×10^-3
# Procedure: as §4
# 4T1^Hif1b-KO grafts = assay: 4T1 Hif1b-KO grafts in mice treated with aza or vehicle; format: in vivo, mouse
# Source text: (§5) Four gRNAs targeting two different exons in the Hif1b locus of the mouse genome and one non-targeting gRNA (scramble) were designed with the appropriate restriction sites for the receiver plasmid using the online Crispor tool (http://crispor.tefor.net). Oligonucleotides corresponding to gRNAs were synthesized by IDT, and forward and reverse oligonucleotides were annealed in the CutSmart buffer (B7240S, NEB) before cloning into the LentiGuide-Puro plasmid (Plasmid 52963, Addgene). Positive colonies were screened by PCR and validated by Sanger sequencing. LentiGuide-Puro plasmids containing GFP was used as positive control to evaluate the transfection- and transduction-efficacy.
# (§6) 4T1 cells were transduced with a lentiviral vector expressing a doxycycline inducible Cas9 nuclease (Cat #CAS11229, Dharmacon) for a tight regulation of the Cas9 expression and gene editing. An infection rate of 30% was used to ensure that the majority of transduced cells harbour a single copy of the vector. These 4T1 cells were always kept in selection medium containing 10 μg/mL of blasticidin (ant-bl-05, Invivogen). When reaching 70% confluency, cells were transduced with one titer of virus. After 24h, the virus was removed and transduction efficacy evaluated based on GFP expression. After 48h, puromycin (P9620, Sigma-Aldrich) 1.5 μg/mL medium was added to the medium. Cells were kept in the presence of blasticidin and puromycin for the remaining experimental procedures. After 3-5 days, Cas9 expression was induced by adding […] (D2975000, Sigma-Aldrich) 0.5 μg/mL medium for 3 days. Cells were kept one day without […] before injection in the mice or further experimental procedures. 4T1 cells transduced with the four gRNAs targeting Hif1b were expanded and proteins were extracted to test the efficacy of the knockout by western blot. […]
# (§7) All the experimental procedures were approved by the Institutional Animal Care and Research Advisory Committee of the KU Leuven. […] Tumour volumes were monitored every two to three days by a calliper, and mice were culled before tumour volumes exceeded 2,000 mm^3. […]
# [7] = tested on: HIF1β binding peaks in MCF7 cells; assay: HIF1β ChIP-seq in hypoxic vehicle- and aza-treated MCF7 cells
# 4T1^Hif1b-scr grafts = assay: 4T1 Hif1b-scr (scramble-control) grafts in mice treated with aza or vehicle; format: in vivo, mouse
# Source text: as §5, §6, §7
# [8] = aza versus PBS, GSVA on immune metagenes
structure (smiles),measurement,setting,value
"Nc1ncn([C@H]2C[C@H](O)[C@@H](CO)O2)c(=O)n1 [aza, 5-aza-2′-deoxycytidine]",increase in expression of the 176 retrotransposon subfamilies bound by HIF1β,MCF7 cells [1]; aza alone,23%
same,expression of the 59 retrotransposons correlated with cytolytic activity,"MCF7 cells [1]; aza-treated MCF7 cells, P<0.05",upregulated
same,average increase in retrotransposon expression,MCF7 cells [1]; combined aza and chronic (4-day) hypoxia,45%
same,increase in expression of the 176 retrotransposon subfamilies bound by HIF1β,"MCF7 cells [1]; combined aza and hypoxia (24 hours, 0.5% O2)",27%
same,retrotransposon overexpression (increase),[2]; aza alone,25%
same,retrotransposon overexpression (increase),[2]; aza in hypoxia,20%
same,retrotransposon expression,4T1 cells,increase
same,activated T cell and natural killer cell signatures,4T1 tumours [3]; [8],upregulated
same,myeloid-derived suppressor cell signatures,4T1 tumours [3]; [8],downregulated
same,cell proliferation marker expression,4T1 tumours [3]; aza versus vehicle,did not reduce
same,retrotransposon expression,"4T1 tumours [3]; in vivo, aza versus vehicle",increased
same,overall reduction of DNA methylation,"MCF7 cells [4]; MCF7 cells pharmacologically demethylated with aza (1 μM, 4 days)",70.5±5.5%
same,reduced methylation at new HIF1β binding sites in aza-treated cells,MCF7 cells [4]; aza-treated versus untreated MCF7 cells,2.5 fold
same,"increase in number of activated, granzyme B-positive T cells",4T1 tumours [5]; P<0.05,2.1 fold
same,T-cell infiltration,4T1 tumours [5]; immunofluorescence of CD8+ T cells,unaffected
same,change in tumour growth,4T1 tumours [6],−32%
same,cancer testis antigen expression,4T1^Hif1b-KO grafts; aza treatment,significant upregulation
same,graft size,"4T1^Hif1b-KO grafts; aza versus vehicle, P=0.21",failed to show this reduction
same,number of activated T cells,4T1^Hif1b-KO grafts; following aza,failed to show such increase
same,new HIF1β binding peaks exposed,"[7]; HIF1β ChIP-seq, hypoxia 0.5% O2 16 hours","1,236"
same,fraction of aza-specific HIF1β binding peaks in retrotransposons,[7]; versus 4.1% in vehicle-treated MCF7 cells,8.1%
same,enrichment of novel aza-specific HIF1β binding peaks for retrotransposons,[7]; versus peaks in vehicle-treated MCF7 cells,2 fold
same,cancer testis antigen expression,4T1^Hif1b-scr grafts; aza treatment,significant upregulation
same,graft size,"4T1^Hif1b-scr grafts; aza versus vehicle, P=0.021",significantly reduced size
same,number of activated T cells,4T1^Hif1b-scr grafts; following aza,increased
